Data set [1] deals with T1, CYP1B1 (Homo sapiens, UniProt Q16678).
T1 sequence (Q16678 1-543): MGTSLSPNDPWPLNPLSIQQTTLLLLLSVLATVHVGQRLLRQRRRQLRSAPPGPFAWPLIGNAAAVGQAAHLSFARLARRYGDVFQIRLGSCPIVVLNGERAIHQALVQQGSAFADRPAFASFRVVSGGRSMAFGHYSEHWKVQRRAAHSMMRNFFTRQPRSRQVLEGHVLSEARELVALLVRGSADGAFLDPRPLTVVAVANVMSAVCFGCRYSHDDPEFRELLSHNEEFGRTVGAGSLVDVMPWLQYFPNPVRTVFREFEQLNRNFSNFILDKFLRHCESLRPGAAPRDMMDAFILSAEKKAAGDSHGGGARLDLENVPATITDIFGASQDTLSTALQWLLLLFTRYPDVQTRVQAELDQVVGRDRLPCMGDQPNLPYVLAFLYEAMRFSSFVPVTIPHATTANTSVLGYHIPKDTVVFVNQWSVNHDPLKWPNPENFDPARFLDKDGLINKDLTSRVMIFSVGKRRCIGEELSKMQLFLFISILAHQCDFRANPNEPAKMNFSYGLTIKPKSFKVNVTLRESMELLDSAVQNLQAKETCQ
The experiment in a line: Biotransformation studies with CYP1B1. The note with it: metabolites produced by CYP1B1 incubation but not control incubations.

For data set [2], the system named is CYP1B1, CYP1A1, CYP1A2. The data set is described as follows: in vitro. The note with it: human.
The test system of data set [3] is CYP1B1, CYP1A1, and CYP1A2.
In data set [4] the target is T2, CYP1A1 (Homo sapiens, UniProt P04798).
T2 sequence (P04798 1-512): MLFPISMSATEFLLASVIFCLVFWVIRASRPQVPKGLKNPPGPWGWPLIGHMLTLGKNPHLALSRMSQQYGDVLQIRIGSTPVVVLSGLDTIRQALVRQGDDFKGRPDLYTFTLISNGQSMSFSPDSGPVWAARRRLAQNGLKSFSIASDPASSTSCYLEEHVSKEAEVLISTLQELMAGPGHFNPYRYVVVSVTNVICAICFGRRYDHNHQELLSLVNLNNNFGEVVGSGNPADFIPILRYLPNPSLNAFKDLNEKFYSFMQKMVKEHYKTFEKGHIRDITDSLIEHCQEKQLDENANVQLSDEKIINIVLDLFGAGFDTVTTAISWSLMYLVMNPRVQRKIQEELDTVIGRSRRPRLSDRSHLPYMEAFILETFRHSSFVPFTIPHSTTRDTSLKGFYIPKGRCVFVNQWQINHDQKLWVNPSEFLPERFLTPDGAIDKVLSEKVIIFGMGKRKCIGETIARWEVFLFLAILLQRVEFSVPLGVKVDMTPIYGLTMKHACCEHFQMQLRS
The data set is described as follows: Flutamide 2-hydroxylation and inhibition, CYP1A1 compared with CYP1B1. The note with it: 2-hydroxylation of flutamide; times higher than CYP1B1. It counts as biochemical.

The target in data set [5] is T1, CYP1B1. The experiment in a line: in vitro. From the text: Recent immunohistochemical analysis of P4501B1 protein in a variety of solid tumours identified tumour-specific enzyme expression (Murray et al, 1998). This provides a mechanism of resistance to currently used anticancer agents, as well as, an approach for targeted prodrug therapy. 7-ethoxyresorufin deethylase activity (EROD) was used to define interactions with cytochrome 1B1 (CYP1B1). 7-Ethoxyresorufin is a known substrate for P4501B1. […] For this purpose, inhibition constants (Ki) have been calculated using in vitro kinetics from CYP1B1-mediated EROD activity. EROD activity and assay has been described previously by various authors (Lubet et al., 1985, Arch. Biochem. Biophys. 238: pp 43-48; Gentest Corporation, 6 Henshaw St., Woburn, Mass. 01801 USA, data sheet given with CYP1B1, catalogue number P220). 7-Ethoxyresorufin is enzymatically deethylated to a product called resorufin. The appearance of resorufin was monitored by a fluorescence detector set at 550 nm and 582 nm (excitation and emission wavelengths). […] Incubations contained: phosphate buffer at pH 7.4, 7-ethoxyresorufin, CYP1B1 Supersomes from Gentest Co (catalogue number P220) and nicotine adenine dinucleotide phosphate (NADP) as cofactor.
The metabolism of anti-cancer drugs by CYP1B1 was studied using an inhibition of EROD assay. […] Ki values were determined by the Dixon's replots: see Table 2.

Where “and” joins values, the source holds several entries; their conditions need not be identical. Equal entries are not always repeated.

For orientation: Ki means the dissociation constant of the complex between target and ligand, obtained from inhibition or displacement. Lower therefore signals higher affinity. What is called inhibition is the percentage by which the read-out fell short of the control. Read a low inhibition as little suppression.

`CC(C)C(=O)Nc1ccc([N+](=O)[O-])c(C(F)(F)F)c1` [Flutamide]: the “biotransformation by CYP1B1” value in data set [1] is recorded as “biotransformed by CYP1B1”. The Ki was 1000 to 10300 nM in data set [2]; 1000 nM and 990 nM in data set [5] (Ki Values, Dixon re-plots of EROD activity, mean). In data set [3], the “inhibition type for CYP1B1, CYP1A1, and CYP1A2 activities” value is on record as “competitive”. In data set [4], the “Km for CYP1A1 relative to CYP1B1” value is on record as 5 times. Further, the “Inhibition Type” value in data set [5] is recorded as “competitive”. In data set [5] (human, pH 7.4), the inhibition at 100 μM is 53 to 99%.
